In one data set the test system is Plasmopara viticola. Put plainly: D-1: Action against Plasmopara viticola on vines (residual-protective and residual-curative). As to conditions: vine seedlings, spray mixture 0.02% active ingredient, evaluated 6 days after infection; protective/curative not distinguished. In kind it is in vivo. As for the experimental part: D-1: Action Against Plasmopara viticola on Vines a) Residual-Protective Action
Vine seedlings are sprayed at the 4- to 5-leaf stage with a spray mixture (0.02% active ingredient) prepared from a wettable powder formulation of the test compound. After 24 hours, the treated plants are infected with a sporangia suspension of the fungus. Fungus infestation is evaluated after incubation for 6 days at 95-100% relative humidity and 20° C. […]
b) Residual-Curative Action
Vine seedlings are infected at the 4- to 5-leaf stage with a sporangia suspension of the fungus. After incubation for 24 hours in a humidity chamber at 95-100% relative humidity and 20° C., the infected plants are dried and sprayed with a spray mixture (0.02% active ingredient) prepared from a wettable powder formulation of the test compound. After the spray coating has dried, the treated plants are placed in the humidity chamber again. Fungus infestation is evaluated 6 days after infection.

The test system of data set [1] is Phytophthora. Put plainly: D-2: Action against Phytophthora on tomato plants (residual-protective and systemic). It is filed as in vivo. As to conditions: spray or soil watering 0.02% active ingredient, evaluated 4-5 days after infection, protective/systemic not distinguished. On the procedure: D-2: Action Against Phytophthora on Tomato Plants
(§1) a) Residual-Protective Action
After a cultivation period of 3 weeks, tomato plants are sprayed with a spray mixture (0.02% active ingredient) prepared from a wettable powder formulation of the test compound. After 48 hours, the treated plants are infected with a sporangia suspension of the fungus. Fungus infestation is evaluated after incubation of the infected plants for 5 days at 90-100% relative humidity and 20° C.
After a cultivation period of 3 weeks, tomato plants are watered with a spray mixture (0.02% active ingredient based on the volume of the soil) prepared from a wettable powder formulation of the test compound. […] After 96 hours, the treated plants are infected with a sporangia suspension of the fungus. Fungus infestation is evaluated after incubation of the infected plants for 4 days at 90-100% relative humidity and 20° C.

Data set [2] relates to Phytophthora. Kind of data set: D-3: Action against Phytophthora on potato plants (residual-protective and systemic). In kind it is in vivo. As to conditions: potato plants (Bintje variety), spray or soil watering 0.02% active ingredient, evaluated 4 days after infection; protective/systemic not distinguished. On the procedure: D-3: Action Against Phytophthora on Potato Plants
as §1
2-3 week old potato plants (Bintje variety) are sprayed with a spray mixture (0.02% active ingredient) prepared from a wettable powder formulation of the test compound. After 48 hours, the treated plants are infected with a sporangia suspension of the fungus. Fungus infestation is evaluated after incubation of the infected plants for 4 days at 90-100% relative humidity and 20° C.
2-3 week old potato plants (Bintje variety) are watered with a spray mixture (0.02% active ingredient based on the volume of the soil) prepared from a wettable powder formulation of the test compound. […] After 48 hours, the treated plants are infected with a sporangia suspension of the fungus. Fungus infestation is evaluated after incubation of the infected plants for 4 days at 90-100% relative humidity and 20° C. Fungal infestation is effectively controlled with compounds of Tables 1 to 37.

Take `CCS(=O)(=O)N[C@H](C(=O)NCCc1ccc(OCC(C)c2ccc(F)cc2)c(OC)c1)C(C)C` (stereo partly drawn) [Compound A1.01, (S)-2-Ethanesulfonylamino-N-(2-{4-[2-(4-fluoro-phenyl)-propoxy]-3-methoxy-phenyl}-ethyl)-3-methyl-butyramide]: the melting point – broadly, the temperature, or range, at which the solid turns liquid – was 107 to 111 °C. For the same molecule, the Fungus infestation entry with Plasmopara viticola is on record as “completely inhibit fungal infestation”. Besides, the Fungus infestation result in the data set on Phytophthora [1] was “completely inhibit fungal infestation”. For the same molecule, the Fungus infestation result in the data set on Phytophthora [2] is on record as “completely inhibit fungal infestation”.
`CCS(=O)(=O)N[C@H](C(=O)NCCc1ccc(OCCCc2cccc(C(F)(F)F)c2)c(OC)c1)C(C)C` yielded a melting point of 119 to 120 °C.
On to `COc1cc(CCNC(=O)[C@@H](NS(C)(=O)=O)C(C)C)ccc1OCCCc1ccc(Cl)cc1`, for which the melting point was 128 to 130 °C.

(Values after patent US20020099241A1, “Alpha-sulfin-and alpha-sulfonamino acid amides” (priority 1998, published 2002).)
